Drawing on paper PMC10303271, “Synthesis and Receptor Binding Studies of α5 GABAAR Selective Novel Imidazodiazepines Targeted for Psychiatric and Cognitive Disorders” (Molecules, 2023), this text covers inhibition for two molecules.

Each structure is given as a SMILES string. Read-outs that look alike come from different tables or passages of the source.

The target of one test is T1, DOR (Homo sapiens, UniProt P41143).
T1 construct: purchased NIMH Psychoactive Drug Screening Program (PDSP)
The test is described as follows: PDSP radioligand binding at DOR. An excerpt:
Opioid receptors are a family of inhibitory G-coupled protein receptors where opioids act as the ligand. The kappa opioid receptors (KOR), µ and δ opioid receptors (MOR and DOR), and nociception opioid receptor (NOP) fall under the family of opioids receptors. It has been reported that oxadiazole imidazodiazepines can mediate analgesic and anti-inflammatory properties mediated also by the κ opioid receptor (KOR). The binding at KOR is usually silent. The affinities of the test compounds for KOR, DOR, and MOR were determined using radioligand binding assays at a screening concentration of 10,000 nM in collaboration with the National Institute of Mental Health’s Psychoactive Drug Screening Program (PDSP), as mentioned before. Concentration-dependent experiments were conducted to determine Ki values for the compounds that exceeded more than 50% radioligand displacement in primary binding assays.
(§1) The NIMH PDSP assay protocol book [https://kidbdev.med.unc.edu/databases/PDSP%20Protocols%20II%202013-03-28.pdf accessed on 23 April 2023]. describes the protocols for primary and secondary radio-ligand binding assays. These assays were carried out in a final volume of 125 µL per well in the appropriate binding buffer.
(§2) The binding of a ligand to a receptor, ion channel, or transporter was determined in the […] of 10 µM of the appropriate reference compound. […] Plates were incubated in the dark for 90 min at rt, and the reactions were stopped by vacuum filtration onto 0.3% polyethyleneimine (PEI) soaked 96-well filter mats using a 96-well Filtermateharvester. This was followed by three washes with cold PBS buffer. Radioactivity was then counted on a Microbeta counter. Nonlinear regression was used to analyze the data with N = 6 replicates.

The target of a further test is T2, 5-HT3 (Homo sapiens, UniProt P46098).
T2 construct: purchased NIMH Psychoactive Drug Screening Program (PDSP)
T2 sequence (P46098 24-478): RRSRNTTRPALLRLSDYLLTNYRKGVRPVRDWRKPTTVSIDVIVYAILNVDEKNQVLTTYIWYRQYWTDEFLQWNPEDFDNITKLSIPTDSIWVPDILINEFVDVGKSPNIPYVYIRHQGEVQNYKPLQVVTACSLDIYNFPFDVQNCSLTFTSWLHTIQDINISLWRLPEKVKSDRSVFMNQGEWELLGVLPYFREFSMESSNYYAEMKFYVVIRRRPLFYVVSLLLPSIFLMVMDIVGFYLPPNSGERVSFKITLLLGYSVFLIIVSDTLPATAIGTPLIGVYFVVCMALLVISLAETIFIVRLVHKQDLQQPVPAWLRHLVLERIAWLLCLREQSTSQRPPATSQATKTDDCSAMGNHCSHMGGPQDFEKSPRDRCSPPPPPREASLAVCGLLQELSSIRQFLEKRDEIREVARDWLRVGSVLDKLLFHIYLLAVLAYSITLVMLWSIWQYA
Kind of test: PDSP primary binding 5-HT3. As to conditions: 1.5 h; primary binding, 10,000 nM; last figure of the line = mean of the 4 before it; read-out: 5-HT3, PDSP raw data, mean. The protocol: (§3) To determine if any off-target receptor-binding effects are present, all the novel ligands were sent to the National Institute of Mental Health (NIMH), Psychoactive Drug Screening Program (PDSP). The ligands were screened over a panel of 47 receptors, ion channels, and transporters to determine any other possible interactions with […]. The hERG-binding was also determined. […] No binding of the test compounds to calcium channels was observed. […] It is necessary to screen the compounds for hERG-binding during the early process of drug discovery. The unintentional binding of many drugs to hERG can cause blockade of hERG K+ channels in the heart, which can cause many side effects including cardiac arrhythmias and sudden death. […] All of the α5 imidazodiazepines were tested for hERG-binding.
as §1, §2

The next test deals with T3, Beta2 (Homo sapiens, UniProt P07550).
T3 construct: purchased NIMH Psychoactive Drug Screening Program (PDSP)
T3 sequence (P07550 whole entry): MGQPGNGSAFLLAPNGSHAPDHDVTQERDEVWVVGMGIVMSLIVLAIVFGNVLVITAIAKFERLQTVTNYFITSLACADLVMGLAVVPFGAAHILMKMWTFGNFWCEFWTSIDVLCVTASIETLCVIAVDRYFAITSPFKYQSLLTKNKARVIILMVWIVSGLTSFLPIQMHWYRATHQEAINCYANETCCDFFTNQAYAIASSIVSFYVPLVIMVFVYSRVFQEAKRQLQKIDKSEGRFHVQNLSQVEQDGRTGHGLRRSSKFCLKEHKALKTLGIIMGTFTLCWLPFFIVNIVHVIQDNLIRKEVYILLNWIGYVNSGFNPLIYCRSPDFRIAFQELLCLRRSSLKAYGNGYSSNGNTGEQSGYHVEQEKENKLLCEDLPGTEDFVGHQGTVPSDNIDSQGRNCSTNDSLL
The test is described as follows: PDSP primary binding Beta2. The note with it: 1.5 h; primary binding, 10,000 nM; last figure of the line = mean of the 4 before it; read-out: Beta2, PDSP raw data, mean. Here is the method:
as §3, §1, §2

The target of a further test is T4, D5 (Homo sapiens, UniProt P21918).
T4 construct: purchased NIMH Psychoactive Drug Screening Program (PDSP)
T4 sequence (P21918 whole entry): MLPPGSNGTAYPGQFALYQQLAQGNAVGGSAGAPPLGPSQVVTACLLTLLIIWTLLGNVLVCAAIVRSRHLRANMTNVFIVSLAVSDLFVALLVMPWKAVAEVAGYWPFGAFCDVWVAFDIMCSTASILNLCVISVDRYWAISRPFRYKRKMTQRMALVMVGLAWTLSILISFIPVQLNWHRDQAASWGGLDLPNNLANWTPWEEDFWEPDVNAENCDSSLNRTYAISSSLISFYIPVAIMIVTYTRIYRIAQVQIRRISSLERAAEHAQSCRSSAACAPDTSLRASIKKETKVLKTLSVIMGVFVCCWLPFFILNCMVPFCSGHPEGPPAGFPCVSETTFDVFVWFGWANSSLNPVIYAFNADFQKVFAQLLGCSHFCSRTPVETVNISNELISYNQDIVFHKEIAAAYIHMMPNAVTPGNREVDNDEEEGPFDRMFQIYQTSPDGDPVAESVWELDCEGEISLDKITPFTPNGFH
The test is described as follows: PDSP primary binding D5. The note with it: 1.5 h; primary binding, 10,000 nM; last figure of the line = mean of the 4 before it; read-out: D5, PDSP raw data, mean. Here is the method:
as §3, §1, §2

The target of another test is T5, M4 D (Homo sapiens, UniProt P08173, A203G/Y113C).
T5 construct: purchased NIMH Psychoactive Drug Screening Program (PDSP)
T5 sequence (P08173 1-479 Y113C/A203G): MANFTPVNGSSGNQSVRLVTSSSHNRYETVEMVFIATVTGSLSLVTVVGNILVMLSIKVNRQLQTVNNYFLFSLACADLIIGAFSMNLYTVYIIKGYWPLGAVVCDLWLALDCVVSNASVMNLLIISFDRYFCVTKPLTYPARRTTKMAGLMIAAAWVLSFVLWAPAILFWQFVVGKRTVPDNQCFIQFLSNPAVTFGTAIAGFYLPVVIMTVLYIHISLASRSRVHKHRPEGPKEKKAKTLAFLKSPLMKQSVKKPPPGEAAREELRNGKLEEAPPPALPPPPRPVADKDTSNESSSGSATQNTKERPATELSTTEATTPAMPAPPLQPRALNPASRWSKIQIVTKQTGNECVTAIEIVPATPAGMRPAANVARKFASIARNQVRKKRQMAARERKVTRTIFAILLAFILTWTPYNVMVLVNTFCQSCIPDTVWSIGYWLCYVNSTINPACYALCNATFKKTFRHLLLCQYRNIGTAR
Kind of test: PDSP primary binding M4 D. The note with it: primary binding, 10,000 nM; last figure of the line = mean of the 4 before it; read-out: M4 D, PDSP raw data, mean. Here is the method:
as §3, §1, §2

Another test addresses T6, Alpha2Beta2 (Rattus norvegicus, UniProt P12389+P12390).
T6 construct: purchased NIMH Psychoactive Drug Screening Program (PDSP)
The test is described as follows: PDSP primary binding Alpha2Beta2. The note with it: primary binding, 10,000 nM; last figure of the line = mean of the 4 before it; read-out: Alpha2Beta2, PDSP raw data, mean. Here is the method:
as §3, §1, §2

[1] abbreviates: at 10,000 nM, N = 5, [3H]-DADLE 2.69 nM, read-out: Primary Binding %DOR.
Where [2] appears, read: primary binding, 10,000 nM, last figure of the line = mean of the 4 before it, read-out: DOR, PDSP raw data, mean.

T1 sequence (P41143 whole entry): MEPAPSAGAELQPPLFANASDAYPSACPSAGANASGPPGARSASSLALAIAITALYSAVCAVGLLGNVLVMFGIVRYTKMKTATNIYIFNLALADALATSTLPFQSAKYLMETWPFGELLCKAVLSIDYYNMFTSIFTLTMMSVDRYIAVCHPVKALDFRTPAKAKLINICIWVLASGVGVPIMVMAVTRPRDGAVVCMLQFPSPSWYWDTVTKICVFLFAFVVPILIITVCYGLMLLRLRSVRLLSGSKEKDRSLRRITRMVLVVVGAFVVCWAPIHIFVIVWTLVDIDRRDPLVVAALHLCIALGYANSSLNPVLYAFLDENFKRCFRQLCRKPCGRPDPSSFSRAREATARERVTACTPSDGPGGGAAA
T6 sequence (P12389 28-511): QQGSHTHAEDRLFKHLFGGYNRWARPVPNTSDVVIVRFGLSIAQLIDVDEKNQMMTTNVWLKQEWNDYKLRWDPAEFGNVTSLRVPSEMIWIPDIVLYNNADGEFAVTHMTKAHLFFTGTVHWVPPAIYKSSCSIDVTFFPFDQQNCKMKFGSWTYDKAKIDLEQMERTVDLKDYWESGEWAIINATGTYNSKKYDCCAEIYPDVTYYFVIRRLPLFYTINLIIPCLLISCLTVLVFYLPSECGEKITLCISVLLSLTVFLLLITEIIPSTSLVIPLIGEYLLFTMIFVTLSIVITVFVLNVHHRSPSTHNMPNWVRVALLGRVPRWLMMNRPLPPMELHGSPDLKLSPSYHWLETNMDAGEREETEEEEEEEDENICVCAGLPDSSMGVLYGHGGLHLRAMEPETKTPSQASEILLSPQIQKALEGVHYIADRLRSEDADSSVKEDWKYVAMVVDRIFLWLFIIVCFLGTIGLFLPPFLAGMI
T6 sequence (P12390 25-500): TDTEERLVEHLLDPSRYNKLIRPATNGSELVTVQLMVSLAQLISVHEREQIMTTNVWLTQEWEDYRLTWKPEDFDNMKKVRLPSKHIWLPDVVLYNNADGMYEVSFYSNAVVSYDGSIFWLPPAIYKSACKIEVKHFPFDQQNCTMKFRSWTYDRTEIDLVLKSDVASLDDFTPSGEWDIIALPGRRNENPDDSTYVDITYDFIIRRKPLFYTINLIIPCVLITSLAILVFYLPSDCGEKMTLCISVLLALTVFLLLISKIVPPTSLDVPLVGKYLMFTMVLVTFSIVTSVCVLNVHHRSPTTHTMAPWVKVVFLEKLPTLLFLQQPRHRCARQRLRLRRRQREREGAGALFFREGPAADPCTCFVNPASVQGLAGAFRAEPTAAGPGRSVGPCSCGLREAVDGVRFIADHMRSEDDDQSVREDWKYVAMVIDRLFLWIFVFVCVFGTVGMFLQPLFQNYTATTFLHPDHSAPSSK

In the case of `CCc1noc(-c2ncn3c2[C@@H](C)N=C(c2ccccc2F)c2cc(Cl)ccc2-3)n1` [Compound 36, (R)-5-(8-Chloro-6-(2′-fluorophenyl)-4-methyl-4H-benzo[f]imidazo[1,5-a][1,4]diazepin-3-yl)-3-ethyl-1,2,4-oxadiazole], the inhibition at 10 µM at DOR (setting [1]) was 40.7 ± 10.2%; on DOR (setting [2]), 40.7%; on 5-HT3, -2%; on Beta2, 2.67%; at D5, 3.16%; on M4 D, 26.6%. For the same molecule, the inhibition at 10 µM at Alpha2Beta2 is -6.7%.
Consider `CCc1noc(-c2ncn3c2CN=C(c2ccccc2F)c2cc(C4CC4)ccc2-3)n1` [Compound 44, 5-(8-Cyclopropyl-6-(2′-fluorophenyl)-4H-benzo[f]imidazo[1,5-a][1,4]diazepin-3-yl)-3-ethyl-1,2,4-oxadiazole], for which the inhibition at 10 µM at DOR (setting [1]) was determined as 81.3 ± 4.76%; on DOR (setting [2]) it was 81.3%; at 5-HT3, 12.8%; on Beta2 it was 3.97%; at D5, 9.06%; at M4 D, 35.9%. The inhibition at 10 µM at Alpha2Beta2 was -6.67%.
